Laboratory results published in patent US20230042729A1, “PEPTIDE CONSTRUCTS AND COMPOSITIONS” (DIET4LIFE APS, priority 2019, published 2023).
No end group written: not given here.

Key:
murine intestinal cells = murine intestinal cells (Mus musculus, UniProt O88319); assay: Ca2+ flux / calcium response assay (cell signaling activity); type: cell-based
Procedure: Ca^2+ Flux Assay/Calcium Response Assay:
Elevation of intracellular calcium level was measured using the fluorescent calcium chelating dye Fluo-4 AM (ThermoFischer Scientific, Denmark). Briefly, cells were grown as a monolayer in 96-well tissue culture plates (Sarstedt, Germany) to near confluence in appropriate growth medium as described in the cell culture section.
All test compounds were dissolved in water, and then diluted in 1×HBSS containing 25 mM HEPES (pH 7.4), 1% BSA and 2% ink. […]

[1] = Stability of peptides in intestine homogenate, remaining activity read in intestinal cells; type: in vitro ADME, mice; details: octapeptides; % activity left after 30 min incubation in intestine homogenate at 37° C.
Procedure: Small intestines from 20 Swiss-Webster males were homogenized in 350 ml Dulbecco's phosphate-buffered saline (PBS) (pH 7.4) (ThermoFischer Scientific, Denmark) with a IKA® basic 18 Ultra-Turrax tissue homogenizer set a speed 5 followed by filtration using 100 μm nylon mesh filter. Protein concentration was 6 mg/ml using the bicinconinic acid assay (ThermoFischer Scientific, Denmark) and bovine serum albumin as standard. The intestine homogenate was diluted 10 times in HBSS containing 25 mM HEPES (pH 7.4), and further diluted 30×, 90×, 270×, 810× or 2430× before incubation with peptides. All solutions were prewarmed to 37° C. before mixing with peptide solutions.
Peptides were incubated at 10^−5 M with dilutions of small intestine homogenate at 37° C. for 90 minutes with shaking. Reactions were stopped by addition of 1 M phosphoric acid (final 0.4 M, pH˜1.2). Each peptide incubation mix was then neutralized with NaOH to pH 7.2-7.4 and immediately tested for activity in intestinal cells. Control for zero degradation, i.e. addition of 1 M phosphoric acid prior to addition of intestine homogenate, was included for each peptide. […]
(§1) The 20 hexapeptides with systematic N-terminal substitutions (X-KPYIL) (Schafer-N, Denmark) and NT (8-13) was incubated at 10^−6 M in either FBS for 10 minutes or with 270× diluted intestinal homogenate for 30 minutes at 37° C. with shaking. The degradation was stopped with 1 M phosphoric acid. Peptide solutions were neutralized with NaOH (pH 7.2-7.4), diluted and immediately tested for bioactivity using murine intestinal cells. Determination of EC50 for stimulation of cells allowed calculation of recovered peptide.

[2] = Stability of peptides in serum, remaining activity read in intestinal cells; type: in vitro ADME, Bovine; details: octapeptides; fraction of peptide activity left after 10 min of incubation in serum at 37° C. compared with undigested sample
Procedure: All peptides were incubated at 10^−5 M with Fetal Bovine Serum (FBS; final concentration of 66.7%) (Sigma Aldrich, Denmark) at 37° C. for 3 hours. The peptide degradation was terminated using 1 M phosphoric acid (final 0.4 M, pH˜1.2) and neutralized to pH 7.2-7.4 with NaOH before testing activity in intestinal cells. As for small intestine homogenates, a zero degradation control was included for each peptide.
DC7-2, NT, DKPYIL and NT-(8-13) (final concentration of 10^−6 M) were incubated either with FBS or with 270× diluted intestinal homogenate at 37° C. for various time points with shaking. Degradation was stopped with 1 M phosphoric acid and the samples were subsequently neutralized and immediately tested with intestinal cells as described above. Control for zero degradation was included for each peptide as above.
as §1

[3] = target: T1, trypsin inhibitor, T9128 from soybean (UniProt P01070)
T1 sequence: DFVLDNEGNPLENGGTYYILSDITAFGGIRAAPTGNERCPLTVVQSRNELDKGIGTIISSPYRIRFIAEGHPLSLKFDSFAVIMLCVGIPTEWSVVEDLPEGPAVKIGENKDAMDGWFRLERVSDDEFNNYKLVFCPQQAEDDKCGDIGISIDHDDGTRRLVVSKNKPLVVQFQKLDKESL

[4] = target: trypsin inhibitor T9253 from chicken egg white (UniProt P01005)
Sequence of trypsin inhibitor T9253 from chicken egg white (P01005 25-210): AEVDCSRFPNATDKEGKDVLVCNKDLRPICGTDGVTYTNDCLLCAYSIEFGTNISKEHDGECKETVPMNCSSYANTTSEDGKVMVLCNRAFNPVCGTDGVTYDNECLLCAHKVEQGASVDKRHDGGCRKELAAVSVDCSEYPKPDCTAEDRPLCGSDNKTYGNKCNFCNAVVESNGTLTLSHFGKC

Sequence of murine intestinal cells (O88319 whole entry): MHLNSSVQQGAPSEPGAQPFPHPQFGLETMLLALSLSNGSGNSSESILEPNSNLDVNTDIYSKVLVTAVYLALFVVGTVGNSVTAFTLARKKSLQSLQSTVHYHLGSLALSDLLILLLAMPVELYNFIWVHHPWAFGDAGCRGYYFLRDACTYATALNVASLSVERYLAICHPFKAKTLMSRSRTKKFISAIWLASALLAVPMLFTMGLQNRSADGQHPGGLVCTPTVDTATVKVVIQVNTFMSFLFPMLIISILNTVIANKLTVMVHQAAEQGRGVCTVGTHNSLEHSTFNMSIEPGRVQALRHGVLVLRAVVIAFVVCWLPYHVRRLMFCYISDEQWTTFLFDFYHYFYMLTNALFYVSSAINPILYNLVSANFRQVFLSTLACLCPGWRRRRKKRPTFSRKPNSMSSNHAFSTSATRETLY

Substance	EC50 (murine intestinal cells) [nM]	further results
MPYIL [Peptide 36006, M PYIL]	16.2	–
MSDKPYIL [Peptide 36046, M SDKPYIL]	4.88	Stability in intestine (activity remaining) [1]: 3.8%; Stability in serum (activity remaining) [2]: 0.0762
NDKPYIL [Peptide 36027, N DKPYIL]	5.92	–
NKPYIL [Peptide 35987, N KPYIL]	0.5	–
NPYIL [Peptide 36007, N PYIL]	39.3	–
NSDKPYIL [Peptide 36047, N SDKPYIL]	4.41	Stability in intestine (activity remaining) [1]: 3.9%; Stability in serum (activity remaining) [2]: 0.0872
PDKPYIL [Peptide 36028, P DKPYIL]	4.67	–
PKPYIL [Peptide 35988, P KPYIL]	0.232	–
PPYIL [Peptide 36008, P PYIL]	9.61	–
PSDKPYIL [Peptide 36048, P SDKPYIL]	4.14	Stability in intestine (activity remaining) [1]: 4.6%; Stability in serum (activity remaining) [2]: 0.0772
QDKPYIL [Peptide 36029, Q DKPYIL]	4.97	–
QKPYIL [Peptide 35989, Q KPYIL]	0.378	–
QPYIL [Peptide 36009, Q PYIL]	20.5	–
QSDKPYIL [Peptide 36049, Q SDKPYIL]	4.01	Stability in intestine (activity remaining) [1]: 8.8%; Stability in serum (activity remaining) [2]: 0.0742
RDKPYIL [Peptide 36030, R DKPYIL]	4.68	–
RSDKPYIL [Peptide 36050, R SDKPYIL]	4.01	Stability in intestine (activity remaining) [1]: 2.6%; Stability in serum (activity remaining) [2]: 0.0735
SDKPYIL [Peptide 36031, S DKPYIL]	5	–
SKPYIL [Peptide 35991, S KPYIL]	1.15	–

Substance	EC50 (murine intestinal cells) [nM]	further results
SPYIL [Peptide 36011, S PYIL]	22.5	–
SSDKPYIL [Peptide 36051, S SDKPYIL]	4.27	Stability in intestine (activity remaining) [1]: 19.5%; Stability in serum (activity remaining) [2]: 0.0609
TDKPYIL [Peptide 36032, T DKPYIL]	5.61	–
TKPYIL [Peptide 35992, T KPYIL]	1.16	–
TPYIL [Peptide 36012, T PYIL]	43.6	–
TSDKPYIL [Peptide 36052, T SDKPYIL]	5.63	Stability in intestine (activity remaining) [1]: 8.4%; Stability in serum (activity remaining) [2]: 0.0535
VDKPYIL [Peptide 36033, V DKPYIL]	4.94	–
VKPYIL [Peptide 35993, V KPYIL]	1.17	–
VPYIL [Peptide 36013, V PYIL]	37.8	–
VSDKPYIL [Peptide 36053, V SDKPYIL]	5.15	Stability in intestine (activity remaining) [1]: 5.6%; Stability in serum (activity remaining) [2]: 0.0488
WDKPYIL [Peptide 36034, W DKPYIL]	14.1	–
WKPYIL [Peptide 35994, W KPYIL]	5.58	–
WSDKPYIL [Peptide 36054, W SDKPYIL]	8.87	Stability in intestine (activity remaining) [1]: 3.6%; Stability in serum (activity remaining) [2]: 0.0426
YDKPYIL [Peptide 36035, Y DKPYIL]	6.83	–
YKPYIL [Peptide 35995, Y KPYIL]	3.34	–
YPYIL [Peptide 36015, Y PYIL]	140	–
YSDKPYIL [Peptide 36055, Y SDKPYIL]	5.92	Stability in intestine (activity remaining) [1]: 3.0%; Stability in serum (activity remaining) [2]: 0.0491
trypsin in intestine homogenate (mouse small intestine)	–	trypsin activity (conversion of L-BAPA, slope of kinetic absorbance) [3]: Intestinal and pancreatic trypsin activity was inhibited in a dose-dependent manner by two specific trypsin inhibitors from soybean and chicken egg white, respectively; trypsin activity (conversion of L-BAPA, slope of kinetic absorbance) [4]: Intestinal and pancreatic trypsin activity was inhibited in a dose-dependent manner by two specific trypsin inhibitors from soybean and chicken egg white, respectively
